Test results taken from patent US7666985B2, “HLA-A24-restricted cancer antigen peptides” (International Institute of Cancer Immunology, Inc., priority 2002, dated 2010).
“Also recorded” adds a separate entry of the source. Where two headings read alike, the source gives them in different places. Square brackets hold non-standard residues; d marks the D form. Ends that are not written are not given here. Abu = CC[C@H](N)C(=O)O

Tests used:
[1] = tested on: Jurkat-A2402/K^b cells pulsed with the peptide; test: CTL-inducing activity (immunogenicity) in HLA-A2402/K^b transgenic mouse, 51Cr release assay; type: in vivo; conditions: for immunogenicity (activity to induce CTLs; cytotoxic activity, % Specific Lysis): HLA-A2402/K^b transgenic mice (three per peptide) immunized s.c. with peptide + helper peptide in IFA, splenocytes stimulated in vitro 6 days, E/T ratio of 80; for immunogenicity (activity to induce CTLs; cytotoxic activity, % Specific Lysis) / induction of specific CTLs (cytotoxic activity, % Specific Lysis): peptide-pulsed vs non-pulsed Jurkat-A2402/K^b targets; for induction of specific CTLs (cytotoxic activity, % Specific Lysis): Reference 9: transgenic mouse (04-1 line) immunized with known HLA-A24-restricted cancer antigen peptide + helper peptide in IFA
Protocol: Specifically, HER-2/neu780-788 and helper peptide were adjusted to 40 mg/ml and 20 mg/ml, respectively, in DMSO and diluted with a physiological saline to 2 mg/ml and 1 mg/ml, respectively. They were mixed with an equal amount of Freund's incomplete adjuvant (Wako Pure Chemical Industries, Ltd.) using a glass syringe to prepare a water-in-oil emulsion. The resultant preparation (200 μl) was injected into a transgenic mouse (04-1 line) subcutaneously in the base of the tail for immunization. Seven days after the initiation of experiment, the spleen was removed and grounded on the frosted part of glass slide, and splenocytes were recovered and prepared. A portion of the splenocytes undergone hemolysis treatment with an ACK buffer (0.15 M NH4Cl, 10 mM KHCO3, 0.1 mM EDTA, pH 7.2-7.4) was exposed to X ray radiation (2,000 rad), pulsed with the above-mentioned peptide (100 μg/ml) for 1 hour, and seeded into a 24-well plate at 0.7×10^6/well. Non-radiated, non-peptide-pulsed splenocytes (7×10^6/well) were added together and stimulated again at 37° C. (final concentration of peptide, 1 μg/ml). In vitro stimulation was carried out for 6 days in […] of a culture solution (CTM culture solution) containing 10% FCS, 10 mM HEPES, 20 mM L-glutamine, 1 mM sodium pyruvate, 1 mM MEM nonessential amino acid, 1% MEM vitamin and 55 μM 2-mercaptoethanol in RPMI 1640 medium.
On the other hand, Jurkat-A2402/K^b cells prepared in Reference 8 were labeled with ^51Cr (3.7 MBq/10^6 cells) and pulsed with the peptide above at 100 μg/ml for one hour. The labeling was carried out over 2 hours, and 1 hour after initiation of labeling, peptide was added to make the final concentration 100 μg/ml. Cells that were not pulsed with peptide were prepared as control target cells.
CTL-inducing activity was determined by ^51Cr release assay (J. Immunol., 159:4753, 1997), wherein the previously prepared transgenic mouse splenocyte preparation was added to said Jurkat-A2402/K^b cells as the target cells.
Immunogenicity of each antigen peptide was evaluated using the HLA-A2402/K^b transgenic mouse as constructed in aforementioned References. For the evaluation of each peptide for its immunogenicity, three transgenic mice were immunized with one peptide.
Specifically, each antigen peptide and the helper peptide were adjusted to 40 mg/ml and 20 mg/ml, respectively, in DMSO, and diluted with a physiological saline to 2 mg/ml and 1 mg/ml, respectively. They were then mixed with an equal amount of Freund's incomplete adjuvant (IFA) using a glass syringe to prepare a water-in-oil emulsion. The resultant emulsion (200 μl) was injected into the HLA-A2402/K^b transgenic mouse subcutaneously in the base of the tail for immunization. Seven days after the initiation of experiment, the spleen was removed and grounded on the frosted part of glass slide, and splenocytes were recovered and prepared. A portion of the splenocytes undergone hemolysis treatment with an ACK buffer (0.15 M NH4Cl, 10 mM KHCO3, 0.1 mM EDTA, pH 7.2-7.4) was exposed to X ray radiation (2,000 rad), then pulsed with the above-mentioned peptide (100 μg/ml) for 1 hour, and seeded into a 24-well plate at 7×10^6/well. Simultaneously, non-radiated, non-peptide-pulsed splenocytes (7×10^5/well) were added together and stimulated in vitro at 37° C. for 6 days. The in vitro stimulation was carried out in RPMI1640 medium supplemented with 10% FCS, 10 mM HEPES, 20 mM L-glutamine, 1 mM sodium pyruvate, 1 mM MEM nonessential amino acids, 1% MEM vitamin and 55 μM 2-mercaptoethanol.
Then, the test for cytotoxic activity was conducted according to the conventional manner. Jurkat-A2402/K^b cells (Reference 8), and Jurkat-A2402/K^b cells pulsed with the peptide were used as target cells (T). These cells were labeled with ^51Cr (3.7 MBq/10^6 cells) and pulsed with the peptide at 100 μg/ml for one hour (The labeling was carried out over 2 hours, and 1 hour after the initiation of labeling, the peptide was added).

[2] = tested on: Jurkat-A2402/K^b cells pulsed with the natural or non-substituted peptide; conditions: for cross-reactivity of effector cells induced by the substituted peptide to the non-substituted peptide (cytotoxic activity): mice immunized with peptide M or N, targets pulsed with peptide M or N, with peptide H, or without any peptide
Protocol: Cross-reactivity of the effector cells induced by the altered peptide to the natural peptide was tested. Effector cells induced by immunizing the mice with the altered form: peptide H (E) and target cells of the Jurkat-A2402/K^b cells pulsed with the natural form: peptide C (T) were combined and reacted at an E/T ratio of 80, and the cytotoxic activity was determined by ^51Cr release assay.
Cross-reactivity of the effector cells induced by the substituted peptide to the non-substituted peptide was tested. To effector cells induced by immunizing the mice with peptide M or N (E), target cells of the Jurkat-A2402/K^b cells pulsed with peptide M or N, with peptide H, or without any peptide (T) were reacted, and the cytotoxic activities of the effector cells were determined by ^51Cr release assay.

[3] = tested on: RERF-LC-AI cells; conditions: PBMC effector cells stimulated with peptide, targets RERF-LC-AI (WT1+, HLA-A24+) versus WT1+/HLA-A2402- and WT1-/HLA-A24+ lung cancer lines (LK87, 11-18)
Protocol: (§1) Peripheral blood mononuclear cells were separated from healthy donors positive for HLA-A2402, and were placed into wells of a 24-well plate at 4×10^6 cells/well. To the wells, the natural peptide of SEQ ID NO: 7 or the altered peptide of SEQ ID NO: 3 was added at a concentration of 10 μM, and the mixture was incubated for a week in a culture medium comprising 45% RPMI1640, 45% AIV, 10% inactivated human AB serum, 1× nonessential amino acids, 25 ng/ml 2-mercaptoethanol, […] streptomycin, and 50 U/ml penicillin. After the incubation, the cells were adjusted to 2×10^6 cells/well, which were used as responder cells hereafter. On the other hand, peripheral blood mononuclear cells separated from the same healthy donors were incubated together with 10 μM of either of these peptides for 4 hours to accomplish the pulsing with peptide, and then radiated at 30 Gy. The cells were adjusted to 4×10^6 cells/well, which were used as stimulator cells hereafter.
(§2) The responder cells and the stimulator cells thus prepared were mixed together, and the mixture was added with IL-2 at 30 U/ml, and incubated. A similar stimulation of the responder cells with the stimulator cells was conducted three times with an interval of a week. The cytotoxic activity in those cells thus obtained was determined by ^51Cr release assay wherein the cytotoxic activity was determined by reacting the C1R-A*2402 cells positive for an HLA-A24 (Int. J. Cancer, 81, p 387, 1999) labeled with ^51Cr that were pulsed with the natural peptide of SEQ ID NO: 7 as target cells (T), and the cells stimulated with the natural peptide of SEQ ID NO: 7 or the altered peptide of SEQ ID NO: 3 as described above (effector cells)(E) at an E/T ratio of 10, 20 or 40. […] Further, a lung cancer cell line positive for WT1 and positive for an HLA-A24, RERF-LC-AI cells; a lung cancer cell line positive for WT1 and negative for an HLA-A2402, 11-18 cells; or a lung cancer cell line negative for WT1 and positive for an HLA-A24, 11-18 cells were used as target cells to determine the cytotoxic activities of the effector cells described above in a similar manner by ^51Cr release assay.

[4] = tested on: C1R-A*2402 cells pulsed with the natural peptide of SEQ ID NO: 7; conditions: PBMC from HLA-A2402 positive healthy donors stimulated in vitro with 10 μM peptide; E/T ratio of 10, 20 or 40
Protocol: as §1, §2

NYMNLGATL [peptide J, altered peptide L, position 2 altered into tyrosine]
immunogenicity (activity to induce CTLs; cytotoxic activity, % Specific Lysis) [1]: have a high immunogenicity; also recorded: specific CTLs were induced

ALLPAVPSL [peptide K, natural peptide, positions 10 to 18 of human WT1]
immunogenicity (activity to induce CTLs; cytotoxic activity, % Specific Lysis) [1]: have no immunogenicity; also recorded: no specific CTL was induced

RYPSCQKKF [peptide H]
cross-reactivity of effector cells induced by the altered peptide to the natural peptide (cytotoxic activity) ([2]; mice immunized with peptide H, targets pulsed with peptide H or natural peptide C, E/T ratio of 80): exhibited a cytotoxic activity against both cells pulsed with the altered and natural forms

NQMNLGATL [peptide L, natural peptide, positions 239 to 247 of human WT1]
immunogenicity (activity to induce CTLs; cytotoxic activity, % Specific Lysis) [1]: have no immunogenicity; also recorded: no specific CTL was induced

CEA268-277: known HLA-A24-restricted cancer antigen peptide derived from CEA [reference compound]
induction of specific CTLs (cytotoxic activity, % Specific Lysis) [1]: induction of specific CTLs by stimulation with these known HLA-A24-resticted cancer antigen peptides was observed; also recorded: specific CTLs were induced

AYPGCNKRYF [peptide E, natural peptide, positions 326 to 335 of human WT1]
immunogenicity (activity to induce CTLs; cytotoxic activity, % Specific Lysis) [1]: no specific CTL was induced

RYFPNAPYL [peptide F]
immunogenicity (activity to induce CTLs; cytotoxic activity, % Specific Lysis) [1]: have a high immunogenicity; also recorded: specific CTLs were induced

RYPSSQKKF [peptide M]
cross-reactivity of effector cells induced by the substituted peptide to the non-substituted peptide (cytotoxic activity) [2]: exhibited a cytotoxic activity against all of the cells pulsed with the substituted peptides

RYPSAQKKF [peptide N]
cross-reactivity of effector cells induced by the substituted peptide to the non-substituted peptide (cytotoxic activity) [2]: exhibited a cytotoxic activity against all of the cells pulsed with the substituted peptides

RYPGVAPTL [peptide G]
cytotoxic activity of effector cells on lung cancer cell lines [3]: CTLs were induced | CTL-inducing activity (cytotoxic activity) [4]: CTLs were induced

RWPSCQKKF [peptide C, natural peptide, positions 417 to 425 of human WT1]
immunogenicity (activity to induce CTLs; cytotoxic activity, % Specific Lysis) [1]: have no immunogenicity; also recorded: no specific CTL was induced

AYLPAVPSL [peptide I, altered peptide K, position 2 altered into tyrosine]
immunogenicity (activity to induce CTLs; cytotoxic activity, % Specific Lysis) [1]: have a high immunogenicity; also recorded: specific CTLs were induced

QYRIHTHGVF [peptide D, natural peptide, positions 285 to 294 of human WT1]
immunogenicity (activity to induce CTLs; cytotoxic activity, % Specific Lysis) [1]: no specific CTL was induced

RVPGVAPTL [peptide B]
cytotoxic activity of effector cells on lung cancer cell lines [3]: CTLs were induced | cytotoxic activity of effector cells on lung cancer cell lines ([3]; listed as SEQ ID NO: 7): specifically injured only the RERF-LC-AI cells | CTL-inducing activity (cytotoxic activity) [4]: CTLs were induced

MAGE-3195-203: known HLA-A24-restricted cancer antigen peptide derived from MAGE-3 [reference compound]
induction of specific CTLs (cytotoxic activity, % Specific Lysis) [1]: induction of specific CTLs by stimulation with these known HLA-A24-resticted cancer antigen peptides was observed; also recorded: specific CTLs were induced

Arg-Tyr-Pro-Ser-Abu-Gln-Lys-Lys-Phe (RYPS[Abu]QKKF) [peptide O, peptide H with cysteine at position 5 substituted with α-aminobutyric acid]
immunogenicity (cytotoxic activity, % Specific Lysis) ([1]; Example 5: HLA-A24 expressing transgenic mouse immunized with peptide, effector and target cells mixed at various E/T ratios): immunogenicity equivalent to the non-substituted peptide, peptide H; also recorded: specific CTLs were induced

CEA652-660: known HLA-A24-restricted cancer antigen peptide derived from CEA [reference compound]
induction of specific CTLs (cytotoxic activity, % Specific Lysis) [1]: induction of specific CTLs by stimulation with these known HLA-A24-resticted cancer antigen peptides was observed; also recorded: specific CTLs were induced

HER-2/neu780-788: HLA-A24-restriced peptide derived from human tumor antigen HER-2/neu (PYVSRLLGI) [reference compound]
induction of specific CTLs (cytotoxic activity, % Specific Lysis) [1]: induction of specific CTLs by stimulation with HER-2/neu780-788 was observed | induction of specific CTLs (cytotoxic activity, % Specific Lysis) ([1]; listed as HER2/neu780-788): specific CTLs were induced
